The values that follow come from patent publication US8350064B2, “Fluorescent xanthenes and white light fluorophores” (Board of Supervisors of Louisiana State University And …, priority 2006, dated 2013).

Where “and” joins values, the source holds several entries; their conditions need not be identical. Equal entries are not always repeated. Entries after “also recorded” stand apart in the source; their conditions may differ.

Data set [1] in a line: pKa of SNAFR-2 from absorption and emission spectra as a function of pH. Type of data set: physicochemical. The following applies: 50 mM phosphate buffer with 0.25% DMSO. As to the method:
SNAFR-2 was dissolved in 50 mM phosphate buffer with 0.25% DMSO. As the pH increased, the absorption band centered at 550 nm increased. We attributed this band to the anionic form (A). Concurrently, the absorption band at ca. 460 nm decreased. We attributed the 460 nm band to the neutral form (N). Four isosbestic points were observed, at 484, 394, 327, and 304 nm. The 484 nm isosbestic point is near the 488 nm Ar ion laser line. Thus ratiometric measurements using SNAFR-2 as a probe may be conducted with an Ar ion laser and common, commercially available filter sets.
FIGS. 1A through 1H depict the spectral properties of 30 μM SNAFR-2 in 50 mM phosphate buffer with 0.25% DMSO at various pH values. The arrows indicate the spectral changes as the pH increased in order: 7, 8, 8.5, 9 and 10. A=anionic form. N=neutral form. FIG. 1A depicts Absorption spectra. The * indicates the positions of isosbestic points. FIGS. 1B-D depict excitation spectra, with emission monitored at 400 nm, 540 nm, and 620 nm respectively. FIGS. 1E-H depict emission spectra with excitations at 325 nm, 488 nm, 514 nm, and 543 nm respectively, wavelengths that correspond to common laser lines. All fluorescence spectra were normalized versus the maximum for each data set.
(§1) Most prior organic fluorophores have been limited by a narrow excitation range, which has hindered their use in multiplexing systems with other fluorophores. By contrast, the absorption and excitation spectra of SNAFR-2 allow it to be excited from 260 nm to 600, a range that includes various common laser lines, for example, HeCd at 325 nm, Ar ion at 488 and 514 nm, and HeNe at 543 nm (FIGS. 1A-D). SNAFR-2 is compatible with commercially available filter sets, such as those used in various spectroscopic instruments and fluorescence microscopes. […] The pK*a was calculated as 4.54 or 4.73 at room temperature, determined as pKa-em and pKa-abs, respectively.

Data set [2] in a line: Excited-state pK*a of SNAFR-2 estimated using the Forster equation. Type of data set: physicochemical.
Excerpt: as §1

Data set [3] in a line: Spectral properties of SNAFR-2 in DMSO and MeOH. The following applies: for Φ (quantum yield relative to rhodamine 6G in EtOH, Φ = 1): excitation 514 nm. Type of data set: physicochemical. From the text:
The violet-blue emission increased in these organic solvents as compared to buffer. The green emission was attributed to the neutral form. As expected, the emission corresponding to the anionic form decreased in both solvents.

Data set [4] is described as follows: Photobleaching decay of SNAFR-2 in MeOH and fluorescein in 0.1 M NaOH. Type of data set: physicochemical. The following applies: SNAFR-2 in MeOH; excitation 488 nm; at least 1800 s; compared with fluorescein in 0.1 M NaOH. From the text:
We investigated the photostability of SNAFR-2 in MeOH. […] In MeOH, SNAFR-2 can be excited efficiently at 488 nm, which corresponds to an Ar ion laser line. This wavelength also matches well with the absorbance maximum (λabs=493 nm) of fluorescein in aqueous base. We conducted photostability studies in SNAFR-2 and fluorescein solutions, with the concentration of each selected to have an absorbance of 0.03 at 488 nm. The excitation band-pass was opened to 14 nm, the maximum allowed by the instrument we used. The fluorescence signal was collected using both the S- and T-channels of the instrument. S-channel data were collected through a dual monochromator set to the emission maximum of the particular fluorophore. T-channel data were collected through a 550 nm, long-pass filter. High voltage for the photomultiplier tube (PMT) was set to 950 and 500 V for the S and T channels, respectively. […] Fluorescence intensity was monitored at the emission maximum through a dual monochromator following excitation at 543 nm. […] FIGS. 9A and 9B depict the photobleaching decay of SNAFR-2 in MeOH, and of fluorescein in 0.1 M NaOH, monitored at the emission maximum of each compound (FIG. 9A), or through a 550 nm long-pass filter (FIG. 9B). The fluorescence intensity was normalized for each compound as compared to the intensity at time t=0.

Data set [5] relates to HEp2 cells. The experiment in a line: Cellular imaging of live cells (uptake and localization). Type of data set: cell-based. The following applies: fluorescence imaging. The text has this:
There was a strong signal from the endoplasmic reticulum, and a smaller signal from mitochondria. […] No obvious staining of the plasma membrane was seen. However, since the plasma membrane has a large surface area, a relatively low surface signal might not have been detected. Three different filter sets, DAPI, FITC, and Texas Red, were used to select for wavelengths corresponding to the blue, green, and red emissions of SNAFR-2, respectively. […] However, autofluorescence was minimal with the longer wavelength filter sets, FITC and Texas Red.

Data set [6] has as its system HEp2 cells. The experiment in a line: Cytotoxicity, CellTiter Blue Cell Viability assay. Type of data set: cell-based. The following applies: 24 hours, up to 100 μM (FIG. 10), dilutions 10 μM to 1.25 μM. As to the method: Compound toxicity was tested by plating 7500 HEp2 cells per well on a Costar 96-well plate. Cells were allowed to grow for 48 hours and were then fed medium containing twofold dilutions of SNAFR-6 ranging from 10 μM to 1.25 μM. Also, 0.1% Saponin (Sigma) was used as a […] control. Cells were then incubated for 24 hours. Viability was measured using the CellTiter Blue Cell Viability assay (Promega) as per manufacturer's instructions. The fluorescence signal was detected using an excitation wavelength of 520 nm and emission wavelength of 584 nm. Viability was normalized against a scale in which untreated cells were rated 100%, and cells treated with 0.1% saponin were rated 0%. At the concentrations tested, the cytotoxicity of SNAFR-6 was low.
A general note: The colour change of resazurin is a common sign of viable cells or microbes.

Data set [7] in a line: pKa of SNAFR-6 by absorption and fluorescence titration; aggregation in buffered media. Type of data set: physicochemical. From the text: Both the neutral and anionic forms could be excited simultaneously at wavelengths from ˜420 nm to ˜530 nm, a range that includes both the 488 and 514 nm argon ion laser spectral lines. The neutral emission could be selectively measured by using, for example, an FITC filter set. Also, the anionic form can be selectively excited using a longer excitation wavelength, ˜540 nm to ˜650 nm. Anionic emission can be selectively measured, using, for example, common Texas Red filter sets. SNAFR-6 is thus a versatile fluorophore for ratiometric measurements.

A short description of data set [8]: Fluorescence properties of SNAFR-6 (Stokes shift, quantum yield). Type of data set: physicochemical. The text has this: The neutral form of SNAFR-6 could be excited from ˜420 nm to ˜530 nm. Its emission was centered at 571 nm. The anionic form could be efficiently excited over a broad range from ˜420 nm to ˜650 nm, with an excitation maximum at 536 nm. The anionic emission ranged from ˜575 nm to ˜850 nm, centered at 733 nm. SNAFR-6 thus has a very large Stokes shift, 197 nm.
FIG. 7 depicts an overlay of the normalized absorption spectrum of SNAFR-6 in 0.1 M NaOH solution, and the NIR emission from its anionic form in phosphate buffer (50 mM, pH 9.3):DMSO 99:1 v/v. The anionic emission at 733 nm was readily excited throughout a ˜200 nm window, a range that includes the common argon ion laser wavelengths of 488 nm and 514 nm. The absorption maximum is located at 536 nm.
The quantum yield of the anionic (NIR) emission of SNAFR-6 in DMSO was 0.09, measured by reference to rhodamine 6G in EtOH. This is a relatively high value for an NIR dye emitting at a wavelength longer than ˜730 nm.

[9] abbreviates: method 0-0 excitation, room temperature.

`O=c1ccc2c(-c3ccccc3)c3ccc4cc(O)ccc4c3oc-2c1` [SNAFR-2]: the pKa in data set [1] (Abs, λisobestic 304, λ1/λ2 265/304, 50 mM phosphate buffer, read-out: pKa) was 8.48; in data set [1] (Abs, λisobestic 304, λ1/λ2 296/304, 50 mM phosphate buffer, read-out: pKa) it was 8.54; in data set [1] (Abs, λisobestic 304, λ1/λ2 312/304, 50 mM phosphate buffer, read-out: pKa), 8.48; in data set [1] (Abs, λisobestic 327, λ1/λ2 312/327, 50 mM phosphate buffer, read-out: pKa), 8.54; in data set [1] (Abs, λisobestic 327, λ1/λ2 344/327, 50 mM phosphate buffer, read-out: pKa), 8.51; in data set [1] (Abs, λisobestic 327, λ1/λ2 380/327, 50 mM phosphate buffer, read-out: pKa), 8.51. The pKa in data set [1] (Abs, λisobestic 394, λ1/λ2 344/394, 50 mM phosphate buffer, read-out: pKa) stood at 8.58; in data set [1] (Abs, λisobestic 394, λ1/λ2 380/394, 50 mM phosphate buffer, read-out: pKa) it was 8.68; in data set [1] (Abs, λisobestic 484, λ1/λ2 469/484, 50 mM phosphate buffer, read-out: pKa), 8.47; in data set [1] (Abs, λisobestic 484, λ1/λ2 511/484, 50 mM phosphate buffer, read-out: pKa) it was 8.54; in data set [1] (Abs, λisobestic 484, λ1/λ2 543/484, 50 mM phosphate buffer, read-out: pKa), 8.52; in data set [1] (Em, λex 325, λ1/λ2 541/597, 50 mM phosphate buffer, read-out: pKa) it was 8.32. The pKa was determined as 8.32 in data set [1] (Em, λex 325, λ1/λ2 575/597, 50 mM phosphate buffer, read-out: pKa); 8.38 in data set [1] (Em, λex 325, λ1/λ2 627/597, 50 mM phosphate buffer, read-out: pKa); 8.33 in data set [1] (Em, λex 488, λ1/λ2 542/600, 50 mM phosphate buffer, read-out: pKa); 8.36 in data set [1] (Em, λex 488, λ1/λ2 575/600, 50 mM phosphate buffer, read-out: pKa); 8.35 in data set [1] (Em, λex 488, λ1/λ2 630/600, 50 mM phosphate buffer, read-out: pKa); 8.31 in data set [1] (Em, λex 514, λ1/λ2 539/595, 50 mM phosphate buffer, read-out: pKa). The pKa in data set [1] (Em, λex 514, λ1/λ2 575/595, 50 mM phosphate buffer, read-out: pKa) is 8.32; in data set [1] (Em, λex 514, λ1/λ2 623/595, 50 mM phosphate buffer, read-out: pKa), 8.34; in data set [1] (absorption spectra, phosphate buffer with 0.25% DMSO, read-out: average pKa-abs) it was 8.53 ± 0.06; in data set [1] (different excitation wavelengths, phosphate buffer with 0.25% DMSO, read-out: pKa values inferred from emission spectra) it was 8.31 to 8.38; in data set [1] (different isosbestic points, phosphate buffer with 0.25% DMSO, read-out: pKa values calculated from absorption spectra) it was 8.47 to 8.68; in data set [1] (emission spectra, phosphate buffer with 0.25% DMSO, read-out: average pKa-em) it was 8.34 ± 0.02. For the same compound, in data set [2] (across different methods to calculate the excitation frequency), the “pK*a value” is on record as 3.3 to 6.3. The “pKa-abs*” value in data set [2] (method 0-0 absorption) is reported as 5.30; in data set [2] (setting [9]) it was 4.73; in data set [2] (method Absorption), 6.34; in data set [2] (method Emission) it was 3.54; in data set [2] (method Excitation), 6.25. The “pKa-em*” value in data set [2] (method 0-0 absorption) is given as 5.11; in data set [2] (setting [9]) it was 4.54; in data set [2] (method Absorption), 6.15; in data set [2] (method Emission) it was 3.34; in data set [2] (method Excitation), 6.05. In addition, the “λem (peak locations in the emission spectra)” value was found to be 560 nm in data set [3] (DMSO) and 550 nm in data set [3] (MeOH). Besides, the “Φ (quantum yield relative to rhodamine 6G in EtOH, Φ = 1)” value in data set [3] (DMSO) came out at 0.33; in data set [3] (MeOH) it was 0.41. Besides, the “photostability (photobleaching decay)” value in data set [4] is “far more photostable than fluorescein; also recorded: excellent photostability; also recorded: considerably higher photostability”. In addition, in data set [5], the entry into cells result was “readily entered HEp2 cells”.
For `O=c1ccc2c(-c3ccccc3)c3cc4ccc(O)cc4cc3oc-2c1` [SNAFR-6], in data set [6], the “cytotoxicity (cell viability)” value was “low and low cytotoxicity”. Moreover, in data set [5], the entry into cells result is listed as “readily enters cells”. Besides, the pKa in data set [7] (absorption titration) worked out at 8.18 ± 0.03; in data set [7] (fluorescence titration) it was 8.1 ± 0.03. Further, in data set [7] (buffered media), the aggregation result was “Significant aggregation in buffered media was not seen”. Also, the “quantum yield of the anionic (NIR) emission” value in data set [8] (DMSO, by reference to rhodamine 6G in EtOH) is 0.09. The Stokes shift in data set [8] (anionic form, excitation maximum 536 nm, emission 733 nm, aqueous solution) was 197 nm and ~200 nm.
